The values below come from US20250230193A1, “CYCLIC COMPOUND HAVING SELECTIVE KRAS INHIBITORY EFFECT ON HRAS AND NRAS” (CHUGAI SEIYAKU KABUSHIKI KAISHA, priority 2022, published 2025).

For assay [1], the target named is GDP-bound NRAS wild-type protein (Homo sapiens, UniProt P01111). The assay can be described thus: Binding to NRAS by surface plasmon resonance (SPR), Single Cycle Kinetics. Particulars: for NRAS/KRAS (ratio of KD value with respect to NRAS to KD value with respect to KRAS): GDP-bound NRAS wild-type vs GDP-bound KRAS wild-type. A general note: SPR reads the build-up and loss of mass on a sensor chip optically.

Assay [2] concerns the target GDP-bound HRAS wild-type protein (Homo sapiens, UniProt P01112). The assay can be described thus: Binding to HRAS by surface plasmon resonance (SPR), Single Cycle Kinetics. The settings on record: for HRAS/KRAS (ratio of KD value with respect to HRAS to KD value with respect to KRAS): GDP-bound HRAS wild-type vs GDP-bound KRAS wild-type.

Where a SMILES comes first, the peptide text is derived from it. Bridges are numbered along the chain shown (N, C = ends). [ ]: non-standard residue; d: D form. The star is where a group is joined. hPhe(3-Cl-4-CF3) = N[C@@H](CCc1ccc(C(F)(F)F)c(Cl)c1)C(=O)O; NPrPhe(4-CF3) = CCCN[C@@H](Cc1ccc(C(F)(F)F)cc1)C(=O)O; NMeGly(cPent) = CN[C@H](C(=O)O)C1CCCC1; Hyp = O=C(O)[C@@H]1C[C@@H](O)CN1; NMeD = CN[C@@H](CC(=O)O)C(=O)O; NMeL = CN[C@@H](CC(C)C)C(=O)O; Morpholide = C1CN(*)CCO1; Ac4c = NC1(C(=O)O)CCC1; NEtG = CCNCC(=O)O; Sar = CNCC(=O)O

GDP-bound NRAS wild-type protein, sequence (P01111 whole entry): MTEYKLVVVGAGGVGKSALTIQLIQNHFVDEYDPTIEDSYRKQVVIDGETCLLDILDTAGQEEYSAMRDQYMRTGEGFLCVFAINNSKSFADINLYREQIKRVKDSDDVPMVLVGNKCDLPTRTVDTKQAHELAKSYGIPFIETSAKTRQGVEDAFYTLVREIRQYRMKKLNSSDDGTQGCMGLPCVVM
GDP-bound HRAS wild-type protein, sequence (P01112 whole entry): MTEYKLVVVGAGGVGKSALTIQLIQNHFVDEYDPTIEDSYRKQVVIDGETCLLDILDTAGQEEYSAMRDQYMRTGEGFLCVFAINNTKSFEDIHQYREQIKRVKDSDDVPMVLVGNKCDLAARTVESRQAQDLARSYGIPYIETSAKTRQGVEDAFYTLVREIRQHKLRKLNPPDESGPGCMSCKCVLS

On to `CCOC[C@H]1C(=O)N[C@@H]([C@@H](C)CC)C(=O)N2CCC[C@H]2C(=O)N(C)[C@H]2C/C=C\CCN(C2=O)[C@@H](Cc2ccc(C)cc2)C(=O)N(C)CC(=O)N[C@@H](CCc2ccc(C(F)(F)F)c(OC)c2)C(=O)N2C[C@@H](C)C[C@H]2C(=O)NC2(CC(C)(C)C2)C(=O)N(C)[C@@H](C2CCCC2)C(=O)N(C)[C@H](C(=O)N(C)CC)CC(=O)N1C` [PP2427], for which the “NRAS/KRAS (ratio of KD value with respect to NRAS to KD value with respect to KRAS)” value in assay [1] (SPR) was “AA (a compound having 20 or more is denoted as AA)”. Moreover, in assay [2] (SPR), the “HRAS/KRAS (ratio of KD value with respect to HRAS to KD value with respect to KRAS)” value was “A (a compound having 10 or more and less than 20 is denoted as A)”.

Turning to `CCO[C@@H]1C[C@H]2C(=O)NC3(CCC3)C(=O)N(C)[C@@H](C3CCCC3)C(=O)N(C)[C@H](C(=O)N(C)C)CC(=O)N(C)[C@@H](Cc3ccc(C#N)cc3)C(=O)N[C@@H]([C@@H](C)CC)C(=O)N(C)CC(=O)N(C)[C@H]3CCCCCN(C3=O)[C@@H](Cc3ccc(C(F)(F)F)cc3)C(=O)N(C)CC(=O)N[C@@H](CCc3cc(F)c(C(F)(F)F)c(F)c3)C(=O)N2C1` [PP1173], in assay [1] (KD ratio, SPR), the “NRAS/KRAS (ratio of KD value with respect to NRAS to KD value with respect to KRAS)” value was “B (a compound having 3 or more and less than 10 is denoted as B)”. The “HRAS/KRAS (ratio of KD value with respect to HRAS to KD value with respect to KRAS)” value in assay [2] (KD ratio, SPR) was “B (a compound having 3 or more and less than 10 is denoted as B)”.

Turning to `CCO[C@@H]1C[C@H]2C(=O)NC3(CCCC3)C(=O)N(C)[C@@H](C3CCCC3)C(=O)N(C)[C@H](C(=O)N(C)C)CC(=O)N(C)[C@@H](CC(C)C)C(=O)N[C@@H]([C@@H](C)CC)C(=O)N(C)CC(=O)N(C)[C@H]3C/C=C\CCN(C3=O)[C@@H](Cc3ccc(C(F)(F)F)cc3)C(=O)N(C)CC(=O)N[C@@H](CCc3ccc(C(F)(F)F)c(Cl)c3)C(=O)N2C1` [PP2838], the “NRAS/KRAS (ratio of KD value with respect to GDP-bound NRAS wild-type protein to KD value with respect to KRAS)” value in assay [1] (KD ratio NRAS/KRAS, class symbols) is on record as “AA (a compound having 20 or more is denoted as AA)”. Further, in assay [2] (KD ratio HRAS/KRAS, class symbols), the “HRAS/KRAS (ratio of KD value with respect to GDP-bound HRAS wild-type protein to KD value with respect to KRAS)” value is “A (a compound having 10 or more and less than 20 is denoted as A)”.

As to `CCC[C@H]1C(=O)N[C@@H]([C@@H](C)CC)C(=O)N(C)CC(=O)N(C)[C@H]2C/C=C\CCN(C2=O)[C@@H](Cc2ccc(C(F)(F)F)cc2)C(=O)N(C)CC(=O)N[C@@H](CCc2cc(F)c(C(F)(F)F)c(F)c2)C(=O)N2C[C@H](OCC)C[C@H]2C(=O)NC2(CC(C)(C)C2)C(=O)N(C)[C@@H](C(CC)CC)C(=O)N(C)[C@H](C(=O)N(C)C)CC(=O)N1C` [PP2125], the “NRAS/KRAS (ratio of KD value with respect to NRAS to KD value with respect to KRAS)” value in assay [1] (SPR) was “AA (a compound having 20 or more is denoted as AA)”. The “HRAS/KRAS (ratio of KD value with respect to HRAS to KD value with respect to KRAS)” value in assay [2] (SPR) is “A (a compound having 10 or more and less than 20 is denoted as A)”.

In the case of `CCCN1C(=O)CN(C)C(=O)CN(CC)C(=O)[C@H]([C@@H](C)CC)NC(=O)[C@H](CC(C)C)N(C)C(=O)C[C@@H](C(=O)N2CCOCC2)N(C)C(=O)[C@H](C2CCCC2)N(C)C(=O)C2(CCC2)NC(=O)[C@@H]2C[C@@H](OCC)CN2C(=O)[C@H](CCc2ccc(C(F)(F)F)c(Cl)c2)NC(=O)CN(C)C(=O)[C@@H]1Cc1ccc(C(F)(F)F)cc1` [PP0401] ([NMeL]I[NEtG][Sar][NPrPhe(4-CF3)][Sar][hPhe(3-Cl-4-CF3)][Hyp](Et)[Ac4c][NMeGly(cPent)][NMeD]-Morpholide; lactam N-11), the “NRAS/KRAS (ratio of KD for GDP-bound NRAS wild-type to KD for KRAS)” value in assay [1] (KD ratio NRAS/KRAS, SPR) is “B (a compound having 3 or more and less than 10 is denoted as B)”. Further, the “HRAS/KRAS (ratio of KD for GDP-bound HRAS wild-type to KD for KRAS)” value in assay [2] (KD ratio HRAS/KRAS, SPR) is “B (a compound having 3 or more and less than 10 is denoted as B)”.
